“Also recorded” adds a separate entry of the source.
Columns and labels:
CB2 = experiment: Western blot of CB2 levels in MCF7 cells after drug treatment; format: cell-based; details: two days; for levels of CB2 relative to controls: LDN 10 nM, 6BN 1 μM or 10 μM, Western blot densitometry normalised to GAPDH, vs no-drug controls
Procedure: Levels of Bcl2-associated death promoter (BAD), p21 protein, the opioid receptors kappa 1 (OPRK1) and mu 1 (OPRM1), and the cannabinoid receptors CBR1 (CB1) and CBR2 (CB2) are visualised by Western blot (left) against GAPDH as a loading control, and quantified via density analysis relative to GAPDH (right).
One illustrative and non-limiting experiment was carried out on cultures of MCF7 cells. In brief, either LDN at 10 nM or 6BN at 1 μM or 10 μM was administered in vitro to a culture for two days, after which the expression levels of BAD, p21, opioid receptors kappa and mu, CB1, CB2, and GAPDH (as a loading control) were analysed via Western blot and subsequent quantification via density measurement of the bands.
In full, MCF7 cells were seeded into 6-well plates at a density of 1×10^5/well and left to adhere over-night. Naltrexone (10 nM) or 6-β-naltrexol (1 μM or 10 μM) were added to the cells before harvesting cells for western blot analysis. Primary probing was performed with specific antibodies generated against BAD, p21, OPRK1, […], CBR-1 and CBR-2. […] Anti-GAPDH was used as a loading control. All antibodies were used at a dilution of 1:1000, followed by the appropriate HRP conjugated secondary antibodies also at a dilution of 1:1000. Bands were visualised by the SuperSignal chemiluminescent detection system, and densitometry of band intensity was determined using Adobe Photoshop CS3, v10.0, and normalised to the loading control.

MCF7 cells = experiment: Two-stage sequential treatment of MCF7 cells, cell number and viability (trypan blue); format: cell-based; details: LDN (10 nM) or 6BN (10 μM) for 48 h, then cannabinoid (cannabidiol 10 μM) for 48 h, compared with other sequences
Procedure: Each treatment lasted four days and consisted of two days of treatment with the first agent (UN=control, LDN=Low Dose Naltrexone at 10 nM CBD=Cannabidiol, 6BN=6-β-naltrexol) before the second-named agent was introduced for a further two days.
Another illustrative and non-limiting experiment was carried out on cultures of MCF7 cells. In brief, the cultures were treated with LDN or 6BN for two days, after which a cannabinoid was administered for a further two days. Cell number and viability were assessed on day four. The sequence of the administration for each therapeutic agent was reversed and the experiment repeated.
In full, MCF7 cells were seeded into 6-well plates at a density of 1.5×10^4/well and left to adhere. Cells were then cultured with naltrexone (10 nM), 6-β-naltrexol (10 μM) or cannabidiol (10 μM). Drug-containing media was removed after 48 h, and cells were rinsed gently with drug-free medium. Fresh culture medium was then added to the cells supplemented with either naltrexone (10 nM), 6-β-naltrexol (10 μM) or cannabidiol (10 μM), as indicated in the graph. Cell number and viability were assessed a further 48 h later, with percentages of live and dead cells being discriminated by trypan blue dye exclusion. Data were then consolidated to compare the effect of sequence on overall effect.

| Compound | rise in CB2 compared among the three treatments (CB2; 10 μM 6BN compared with 1 μM 6BN and 10 nM LDN) | levels of CB2 relative to controls (CB2) | inhibition of cancer cell proliferation, effect of schedule (MCF7 cells) |
| --- | --- | --- | --- |
| Oc1ccc2c3c1OC1C(O)CC[C@@]4(O)[C@@H](C2)N(CC2CC2)CC[C@]314 (some centres unmarked) [6BN, N-cyclopropylmethyl-7,8-dihydro-14-hydroxynorisomorphine] | highest | significant increase | most effective; also recorded: greater effect |
| O=C1CC[C@@]2(O)[C@H]3Cc4ccc(O)c5c4[C@@]2(CCN3CC2CC2)[C@H]1O5 [LDN, 17-cyclopropylmethyl-4.5α-epoxy-3,14-dihydroxymorphinan-6-one] |  | significant increase; also recorded: increased significantly | most effective; also recorded: more effectively; also recorded: greater effect |

— patent US12324805B2, “Cancer treatment” (LDN Pharma Limited, priority 2017, dated 2025)
